Drawing on US7507730B2, “Substituted pyrazolo[1,5-a]pyrimidines as potassium channel activators” (Bristol-Myers Squibb Company, priority 2005, dated 2009), this text covers inhibition, Kv1.5% inhibition and IC50 for 27 compounds.

Each structure is given as a SMILES string.

For the first test, the target named is Kv1.5 (Homo sapiens, UniProt P22460). Description: Kv1.5 inhibition assay (IKur inhibitor assay per cited references). In kind it is cell-based. Conditions: at 0.3 μM. From the text: Assays to determine the degree of activity of a compound as an IKur inhibitor are well known in the art and are described in references such as J. Gen. Physiol. Apr.; 101 (4):513-43, and Br. J. Pharmacol. 1995 May; 115(2):267-74.
Sequence of Kv1.5 (P22460 whole entry): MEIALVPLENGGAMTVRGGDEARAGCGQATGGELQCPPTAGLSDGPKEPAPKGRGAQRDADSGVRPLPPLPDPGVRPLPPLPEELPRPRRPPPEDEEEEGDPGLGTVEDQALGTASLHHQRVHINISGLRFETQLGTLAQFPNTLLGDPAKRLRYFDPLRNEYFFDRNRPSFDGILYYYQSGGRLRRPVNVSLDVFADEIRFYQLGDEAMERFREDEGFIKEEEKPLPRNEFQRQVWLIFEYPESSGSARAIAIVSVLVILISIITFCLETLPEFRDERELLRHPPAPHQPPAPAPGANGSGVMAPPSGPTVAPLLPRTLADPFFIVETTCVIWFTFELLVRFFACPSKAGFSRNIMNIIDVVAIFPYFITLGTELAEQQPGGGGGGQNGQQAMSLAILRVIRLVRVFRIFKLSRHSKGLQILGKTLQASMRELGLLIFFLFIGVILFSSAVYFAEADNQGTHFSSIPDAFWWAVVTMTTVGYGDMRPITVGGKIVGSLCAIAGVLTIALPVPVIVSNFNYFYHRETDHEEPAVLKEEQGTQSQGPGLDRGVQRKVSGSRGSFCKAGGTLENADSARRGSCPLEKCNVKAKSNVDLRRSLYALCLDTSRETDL
In turn, `CC1=C(C(=O)N(C)S(=O)(=O)c2ccc3ccc(Cl)cc3c2)C(c2ccc(Cl)c(Cl)c2)n2nccc2N1` (racemic) [Example 76, N-(7-Chloronaphthalen-2-ylsulfonyl)-7-(3,4-dichlorophenyl)-N,5-dimethyl-4,7-dihydropyrazolo[1,5-a]pyrimidine-6-carboxamide] showed an inhibition at 0.3 µM of 38%.

Consider `COc1cccc(S(=O)(=O)C2=C(C)Nc3cc(C(F)(F)F)nn3C2c2ccc(Cl)cc2)c1` (single isomer, unassigned) [Example 40 Isomer 1, 7-(4-Chlorophenyl)-6-(3-methoxyphenylsulfonyl)-5-methyl-2-(trifluoromethyl)-4,7-dihydropyrazolo[1,5-a]pyrimidine], for which at 0.3 µM the inhibition was 94.4%.

Consider `COc1cccc(S(=O)(=O)C2=C(C)Nc3cc(C(F)(F)F)nn3C2c2ccc(C)c(F)c2)c1` (single isomer, unassigned) [Example 41 Isomer 1, 7-(3-Fluoro-4-methylphenyl)-6-(3-methoxyphenylsulfonyl)-5-methyl-2-(trifluoromethyl)-4,7-dihydropyrazolo[1,5-a]pyrimidine], for which 0.3 µM produced 84.4% inhibition.

For the compound `CCCS(=O)(=O)N(C)C(=O)C1=C(C)Nc2cc(C(F)(F)F)nn2C1c1ccc(Cl)c(Cl)c1` (single isomer, unassigned) [Example 91 Isomer 2, 7-(3,4-Dichlorophenyl)-N,5-dimethyl-N-(propylsulfonyl)-2-(trifluoromethyl)-4,7-dihydropyrazolo[1,5-a]pyrimidine-6-carboxamide], the Kv1.5% inhibition was 52%.

`CC1=C(C(=O)N(C)S(=O)(=O)c2ccccc2)C(c2ccc(Cl)c(Cl)c2)n2nc(C)cc2N1` (single isomer, unassigned) [Example 79 Isomer 1, 7-(3,4-Dichlorophenyl)-N,2,5-trimethyl-N-(phenylsulfonyl)-4,7-dihydropyrazolo[1,5-a]pyrimidine-6-carboxamide] had a Kv1.5% inhibition of 25%.

The compound `COc1ccc(S(=O)(=O)C2=C(C)Nc3cc(C(F)(F)F)nn3C2c2ccc(C)c(F)c2)cc1` (single isomer, unassigned) [Example 32 Isomer 1, 7-(3-Fluoro-4-methylphenyl)-6-(4-methoxyphenylsulfonyl)-5-methyl-2-(trifluoromethyl)-4,7-dihydropyrazolo[1,5-a]pyrimidine] registered an inhibition at 0.3 µM of 81.8%.

`CC1=C(S(=O)(=O)Cc2ccccc2)C(c2ccc(Cl)c(Cl)c2)n2nc(C)cc2N1` (racemic) [Example 14, 6-(Benzylsulfonyl)-7-(3,4-dichlorophenyl)-2,5-dimethyl-4,7-dihydropyrazolo[1,5-a]pyrimidine] had an inhibition at 0.3 µM of 50.4%.

For `CC1=C(S(=O)(=O)c2ccc(F)cc2)C(c2ccc(Cl)cc2)n2nc(C(F)(F)F)cc2N1` (single isomer, unassigned) [Example 27 Isomer 1, 7-(4-Chlorophenyl)-6-(4-fluorophenylsulfonyl)-5-methyl-2-(trifluoromethyl)-4,7-dihydropyrazolo[1,5-a]pyrimidine], the inhibition at 0.3 µM was 47.6%.

The compound `CC1=C(C(=O)N(C)S(=O)(=O)c2ccc(F)cc2)C(c2ccc(Cl)c(Cl)c2)n2nc(C(F)(F)F)cc2N1` (racemic) [Example 82, 7-(3,4-Dichlorophenyl)-N-(4-fluorophenylsulfonyl)-N,5-dimethyl-2-(trifluoromethyl)-4,7-dihydropyrazolo[1,5-a]pyrimidine-6-carboxamide] returned an inhibition at 0.3 µM of 7%.

In the case of `CC1=C(S(=O)(=O)N2CCOCC2)C(c2ccc(Cl)c(Cl)c2)n2nc(C(F)(F)F)cc2N1` (single isomer, unassigned) [Example 66 Isomer 1, 7-(3,4-Dichlorophenyl)-5-methyl-6-(morpholinosulfonyl)-2-(trifluoromethyl)-4,7-dihydropyrazolo[1,5-a]pyrimidine], the inhibition at 0.3 µM is 51%.

In turn, `CC1=C(S(=O)(=O)c2ccccc2)C(c2ccc(Cl)s2)n2nc(C(F)(F)F)cc2N1` (racemic) [Example 20, 7-(5-Chlorothiophen-2-yl)-5-methyl-6-(phenylsulfonyl)-2-(trifluoromethyl)-4,7-dihydropyrazolo[1,5-a]pyrimidine] displayed an inhibition at 0.3 µM of 7.8%.

`COc1ccc(S(=O)(=O)C2=C(CO)Nc3cc(C(F)(F)F)nn3C2c2ccc(Cl)cc2)cc1` (single isomer, unassigned) [Example 49 Isomer 2, (7-(4-Chlorophenyl)-6-(4-methoxyphenylsulfonyl)-2-(trifluoromethyl)-4,7-dihydropyrazolo[1,5-a]pyrimidin-5-yl)methanol] registered a Kv1.5% inhibition of 71.2%.

The compound `CC1=C(C(=O)N(C)S(=O)(=O)c2ccccc2)C(c2ccc(Cl)c(Cl)c2)n2nccc2N1` (racemic) [Example 74, 7-(3,4-Dichlorophenyl)-N,5-dimethyl-N-(phenylsulfonyl)-4,7-dihydropyrazolo[1,5-a]pyrimidine-6-carboxamide] yielded an inhibition at 0.3 µM of 79%.

Take `COc1ccc(NS(=O)(=O)C2=C(C)Nc3cc(C)nn3C2c2ccc(Cl)c(Cl)c2)cc1` (racemic) [Example 37, 7-(3,4-Dichlorophenyl)-N-(4-methoxyphenyl)-2,5-dimethyl-4,7-dihydropyrazolo[1,5-a]pyrimidine-6-sulfonamide]: the inhibition at 0.3 µM came to 25%.

`CC1=C(C(=O)N(C)S(=O)(=O)C(C)C)C(c2ccc(Cl)c(Cl)c2)n2nc(C(F)(F)F)cc2N1` (single isomer, unassigned) [Example 96 Isomer 2, 7-(3,4-Dichlorophenyl)-N-(isopropylsulfonyl)-N,5-dimethyl-2-(trifluoromethyl)-4,7-dihydropyrazolo[1,5-a]pyrimidine-6-carboxamide] yielded a Kv1.5% inhibition of 56%.

In the case of `CC1=C(S(=O)(=O)NC2CCCCC2)C(c2ccc(Cl)c(Cl)c2)n2nc(C)cc2N1` (single isomer, unassigned) [Example 38 Isomer 2, N-Cyclohexyl-7-(3,4-dichlorophenyl)-2,5-dimethyl-4,7-dihydropyrazolo[1,5-a]pyrimidine-6-sulfonamide], at 0.3 µM the inhibition was 27.6%.

Consider `COc1ccc(S(=O)(=O)C2=C(C)Nc3cc(C(F)(F)F)nn3C2c2ccc(Cl)cc2)cc1OC` (single isomer, unassigned) [Example 51 Isomer 1, 7-(4-Chlorophenyl)-6-(3,4-dimethoxyphenylsulfonyl)-5-methyl-2-(trifluoromethyl)-4,7-dihydropyrazolo[1,5-a]pyrimidine], for which 0.3 µM produced 69.2% inhibition.

Consider `CC1=C(S(=O)(=O)c2ccc(Cl)cc2)C(c2cncnc2)n2nc(C(F)(F)F)cc2N1` (single isomer, unassigned) [Example 50 Isomer 1, 6-(4-Chlorophenylsulfonyl)-5-methyl-7-(pyrimidin-5-yl)-2-(trifluoromethyl)-4,7-dihydropyrazolo[1,5-a]pyrimidine], for which the inhibition at 0.3 µM was found to be 15.1%.

The same test, now with this note: given as % inhibition, value given as a concentration in μM; read-out: Kv1.5% inhibition.
As to `COc1ccc(S(=O)(=O)N(C)C(=O)C2=C(C)Nc3cc(C)nn3C2c2ccc(Cl)c(Cl)c2)cc1` (single isomer, unassigned) [Example 81 Isomer 2, 7-(3,4-Dichlorophenyl)-N-(4-methoxyphenylsulfonyl)-N,2,5-trimethyl-4,7-dihydropyrazolo[1,5-a]pyrimidine-6-carboxamide], the IC50 was 0.098 µM.

The test is the same for the next values; noted with them: read-out: Kv1.5 IC50.
`CC1=C(S(=O)(=O)c2ccc(Cl)cc2)C(c2ccccc2)n2nc(C(F)(F)F)cc2N1` (single isomer, unassigned) [Example 35 Isomer 1, 6-(4-Chlorophenylsulfonyl)-5-methyl-7-phenyl-2-(trifluoromethyl)-4,7-dihydropyrazolo[1,5-a]pyrimidine]: the IC50 turned out to be 0.277 µM.

On to `CC1=C(S(=O)(=O)c2ccc(Cl)cc2)C(CC(C)C)n2nc(C(F)(F)F)cc2N1` (single isomer, unassigned) [Example 45 Isomer 1, 6-(4-Chlorophenylsulfonyl)-7-isobutyl-5-methyl-2-(trifluoromethyl)-4,7-dihydropyrazolo[1,5-a]pyrimidine], for which the IC50 is 0.249 µM.

As to `COc1ccc(S(=O)(=O)C2=C(C)Nc3cc(C)nn3C2c2ccc(Cl)c(Cl)c2)cc1` (single isomer, unassigned) [Example 8 Isomer 2, 7-(3,4-Dichlorophenyl)-6-(4-methoxyphenylsulfonyl)-2,5-dimethyl-4,7-dihydropyrazolo[1,5-a]pyrimidine], the IC50 amounted to 0.174 µM.

`CC1=C(S(=O)(=O)c2ccc(C)cc2)C(c2ccc(Cl)c(Cl)c2)n2nc(C)cc2N1` (single isomer, unassigned) [Example 5 Isomer 2, 7-(3,4-Dichlorophenyl)-2,5-dimethyl-6-tosyl-4,7-dihydropyrazolo[1,5-a]pyrimidine]: the IC50 stood at 0.131 µM.

With `CC1=C(S(=O)(=O)c2ccccc2)C(c2ccc(Cl)c(Cl)c2)n2nc(C)cc2N1` (single isomer, unassigned) [Example 3 Isomer 2, 7-(3,4-Dichlorophenyl)-2,5-dimethyl-6-(phenylsulfonyl)-4,7-dihydropyrazolo[1,5-a]pyrimidine], the IC50 is 0.293 µM.

As to `CC1=C(S(=O)(=O)c2ccc(Cl)cc2)C(C2CCCCC2)n2nc(C(F)(F)F)cc2N1` (single isomer, unassigned) [Example 44 Isomer 1, 6-(4-Chlorophenylsulfonyl)-7-cyclohexyl-5-methyl-2-(trifluoromethyl)-4,7-dihydropyrazolo[1,5-a]pyrimidine], the IC50 stood at 0.202 µM.

For `CC1=C(C(=O)N(C)S(=O)(=O)C2CC2)C(c2ccc(Cl)c(Cl)c2)n2nc(C(F)(F)F)cc2N1` (single isomer, unassigned) [Example 98 Isomer 2, N-(Cyclopropylsulfonyl)-7-(3,4-dichlorophenyl)-N,5-dimethyl-2-(trifluoromethyl)-4,7-dihydropyrazolo[1,5-a]pyrimidine-6-carboxamide], the IC50 worked out at 0.2 µM.

As to `COc1ccc(S(=O)(=O)C2=C(C)Nc3cc(C)nn3C2c2ccc(Cl)cc2)cc1` (single isomer, unassigned) [Example 19 Isomer 1, 7-(4-Chlorophenyl)-6-(4-methoxyphenylsulfonyl)-2,5-dimethyl-4,7-dihydropyrazolo[1,5-a]pyrimidine], the IC50 is 0.055 µM.
